Where two headings read alike, the source gives them in different places.
Key:
GdauOBP1 = GdauOBP1 (Galeruca daurica, UniProt A0A1U9W4Y5); assay: Fluorescence competitive binding assay (1-NPN reporter), recombinant GdauOBP1; settings: for Ki: Ki = IC50/(1 + [1-NPN]/K1-NPN)
Experimental: (§1) Fluorescence-binding assays were performed using a 970CRT spectrofluorophotometer (Hitachi, Japan). Instrument parameters were set as follows: Excitation slit of 10 nm, emission slit of 10 nm, sensitivity of 2 s, excitation wavelength of 337 nm, and scanning emission wavelength range of 350–700 nm. In order to measure the affinity of the fluorescent ligand 1-NPN (N-phenyl-1-naphthylamine) with the six recombinant proteins, the recombinant proteins were diluted to 2 μM in 50 mM Tris–HCl (pH 7.4) and added into a 1-cm light path quartz cuvette. Fluorescence values were recorded after the 1-NPN solution was added successively. The dissociation constant K1–NPN was calculated using GraphPad Prism 7.0 software.
(§2) Thirteen main volatiles of the host plant (A. mongolicum) were selected as competing ligands for the fluorescence competitive binding assays (Table 1). All ligands were purchased from Sigma-Aldrich (St. Louis, MO, United States). These ligands were dissolved in methanol (HPLC grade) to make stock solutions of 1 mM, which were added into a 2-μM protein solution with 1-NPN saturated. […] Three duplications were used in the binding experiment. The curves were fitted using Scatchard plots. The dissociation constants (Ki) of the competitive ligands were calculated based on the equation: Ki = IC50/(1 + [1−NPN]/K1−NPN), where IC50 is the concentration of a competitor that results in a 50% reduction of the initial fluorescence intensity, and [1-NPN] and K1–NPN are the free concentration of 1-NPN and the dissociation constant of the recombinant protein/1-NPN complex, respectively ([Campanacci et al., 2001]).

GdauOBP6 = GdauOBP6 (Galeruca daurica, UniProt A0A1U9W4Z8); assay: Fluorescence competitive binding assay (1-NPN reporter), recombinant GdauOBP6; settings: for Ki: Ki = IC50/(1 + [1-NPN]/K1-NPN)
Experimental: as §1, §2

GdauOBP10 = GdauOBP10 (Galeruca daurica, UniProt A0A1U9W4Z5); assay: Fluorescence competitive binding assay (1-NPN reporter), recombinant GdauOBP10; settings: for Ki: Ki = IC50/(1 + [1-NPN]/K1-NPN)
Experimental: as §1, §2

GdauOBP15 = GdauOBP15 (Galeruca daurica, UniProt A0A1U9W4Z9); assay: Fluorescence competitive binding assay (1-NPN reporter), recombinant GdauOBP15; settings: for Ki: Ki = IC50/(1 + [1-NPN]/K1-NPN)
Experimental: as §1, §2

GdauCSP4 = GdauCSP4 (Galeruca daurica, UniProt A0A1W6GWH1); assay: Fluorescence competitive binding assay (1-NPN reporter), recombinant GdauCSP4; settings: for Ki: Ki = IC50/(1 + [1-NPN]/K1-NPN)
Experimental: as §1, §2

GdauCSP5 = GdauCSP5 (Galeruca daurica, UniProt A0A1W6GWH8); assay: Fluorescence competitive binding assay (1-NPN reporter), recombinant GdauCSP5; settings: for Ki: Ki = IC50/(1 + [1-NPN]/K1-NPN)
Experimental: as §1, §2

G. daurica antennae [1] = assay: Electroantennogram (EAG) of dsRNA-CSP5-injected adults to host plant volatiles; parameters: species or system Galeruca daurica; settings: dsRNA-CSP5-injected females vs dsRNA-GFP control; 10 μL of 1 mol/L odorant
Experimental: (§3) Two microliters of dsRNA (1,000 μg/μL) was injected into the intersegmental membrane between the fourth and fifth abdominal segments of 3-day-old adult females and males using a microinjector (Shimadzu, Japan). All the treated insects, including dsRNA-OBP15-injected, dsRNA-CSP5-injected, and dsRNA-GFP-injected, were reared under natural temperature conditions in the lab. Samples were taken 48 h later for interference efficiency measurement and electroantennogram analysis.
Electroantennograms were conducted to record the antennal responses of dsRNA-OBP15-injected, dsRNA-CSP5-injected, and dsRNA-GFP-injected to 12 plant volatiles. These odorants were dissolved in dichloromethane (HPLC grade) to make stock solutions of 1 mol/L, and dichloromethane alone served as solvent control. The antennae were cut off at the base, and the ends were removed then attached to the electrode with electrode gel. Filter paper strips (1 cm × 0.5 cm) were loaded with 10 μL of each chemical solution and then inserted into a Pasteur pipette. The tube was connected to an air stimulus controller (CS-55; SynTech). The signals were detected by a high-impedance amplifier (IDAC-2; SynTech) and analyzed using SynTech software (GC-EAD 2014 v1.2.5). The pulse duration time was 0.2 s with a stimulation interval of 30 s, and each compound was tested three times for each antenna. It was taken as the absolute value of the difference value between the maximum amplitude achieved by the odor stimulus and the baseline level. Each antenna was stimulated three times. All EAG results are presented as the mean EAG values from six female or male antennae.
The binding assay curve was fitted by GraphPad Prism 7.0, using the least squares (ordinary) fit of the second-order polynomial. Data from qPCR and EAG assays were analyzed using SPSS Statistics 17.0. T-test (P < 0.05) was used to analyze the differences among the groups.

G. daurica antennae [2] = assay: Electroantennogram (EAG) of dsRNA-OBP15-injected adults to host plant volatiles; parameters: species or system Galeruca daurica; settings: dsRNA-OBP15-injected females vs dsRNA-GFP control; 10 μL of 1 mol/L odorant
Experimental: as §3
Electroantennograms were conducted to record the antennal responses of dsRNA-OBP15-injected, dsRNA-CSP5-injected, and dsRNA-GFP-injected to 12 plant volatiles. These odorants were dissolved in dichloromethane (HPLC grade) to make stock solutions of 1 mol/L, and dichloromethane alone served as solvent control. The antennae were cut off at the base, and the ends were removed then attached to the electrode with electrode gel. Filter paper strips (1 cm × 0.5 cm) were loaded with 10 μL of each chemical solution and then inserted into a Pasteur pipette. […] The signals were detected by a high-impedance amplifier (IDAC-2; SynTech) and analyzed using SynTech software (GC-EAD 2014 v1.2.5). […]
The binding assay curve was fitted by GraphPad Prism 7.0, using the least squares (ordinary) fit of the second-order polynomial. Data from qPCR and EAG assays were analyzed using SPSS Statistics 17.0. […]

[3] = GdauOBP1, 2 μM protein, 1-NPN saturated, 50 mM Tris–HCl pH 7.4, read-out: IC50
[4] = GdauOBP6, 2 μM protein, 1-NPN saturated, 50 mM Tris–HCl pH 7.4, read-out: IC50
[5] = GdauOBP10, 2 μM protein, 1-NPN saturated, 50 mM Tris–HCl pH 7.4, read-out: IC50
[6] = GdauOBP15, 2 μM protein, 1-NPN saturated, 50 mM Tris–HCl pH 7.4, read-out: IC50
[7] = GdauCSP4, 2 μM protein, 1-NPN saturated, 50 mM Tris–HCl pH 7.4, read-out: IC50
[8] = GdauCSP5, 2 μM protein, 1-NPN saturated, 50 mM Tris–HCl pH 7.4, read-out: IC50

Chain of GdauCSP4 (A0A1W6GWH1 entry or part of it): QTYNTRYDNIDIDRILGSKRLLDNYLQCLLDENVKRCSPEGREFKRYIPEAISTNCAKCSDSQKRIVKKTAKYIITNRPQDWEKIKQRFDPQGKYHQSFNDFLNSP
Chain of GdauOBP6 (A0A1U9W4Z8 entry or part of it): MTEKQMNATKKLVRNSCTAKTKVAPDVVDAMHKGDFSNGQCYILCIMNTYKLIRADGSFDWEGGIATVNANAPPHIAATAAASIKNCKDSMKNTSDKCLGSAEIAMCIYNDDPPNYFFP
Chain of GdauOBP1 (A0A1U9W4Y5 entry or part of it): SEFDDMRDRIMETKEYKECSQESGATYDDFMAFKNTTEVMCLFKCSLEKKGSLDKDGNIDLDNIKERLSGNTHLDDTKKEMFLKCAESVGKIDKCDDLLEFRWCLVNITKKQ
Chain of GdauCSP5 (A0A1W6GWH8 entry or part of it): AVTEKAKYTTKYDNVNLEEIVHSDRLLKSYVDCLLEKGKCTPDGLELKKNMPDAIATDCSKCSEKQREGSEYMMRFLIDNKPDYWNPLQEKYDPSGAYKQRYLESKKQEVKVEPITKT
Chain of GdauOBP15 (A0A1U9W4Z9 entry or part of it): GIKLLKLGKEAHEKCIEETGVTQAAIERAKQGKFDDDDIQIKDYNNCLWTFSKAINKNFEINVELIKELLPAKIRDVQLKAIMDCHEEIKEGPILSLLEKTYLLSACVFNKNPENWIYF
Chain of GdauOBP10 (A0A1U9W4Z5 entry or part of it): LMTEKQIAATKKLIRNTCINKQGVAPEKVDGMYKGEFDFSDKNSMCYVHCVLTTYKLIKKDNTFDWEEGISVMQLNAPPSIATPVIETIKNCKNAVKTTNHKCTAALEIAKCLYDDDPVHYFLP

| IC50 (GdauOBP1; [3]) [µM] | Ki (GdauOBP1; GdauOBP1) [µM] | IC50 (GdauOBP6; [4]) [µM] | Ki (GdauOBP6; GdauOBP6) [µM] | IC50 (GdauOBP10; [5]) [µM] | Ki (GdauOBP10; GdauOBP10) [µM] | IC50 (GdauOBP15; [6]) [µM] | Ki (GdauOBP15; GdauOBP15) [µM] | IC50 (GdauCSP4; [7]) [µM] | Ki (GdauCSP4; GdauCSP4) [µM] | IC50 (GdauCSP5; [8]) [µM] | Ki (GdauCSP5; GdauCSP5) [µM] | Structure (SMILES) | IC50 (GdauOBP1) [µM] | IC50 (GdauOBP6) [µM] | IC50 (GdauOBP10) [µM] | IC50 (GdauOBP15) [µM] | IC50 (GdauCSP4) [µM] | IC50 (GdauCSP5) [µM] | EAG response compared to the control (G. daurica antennae [1]) | other results |
| --- | --- | --- | --- | --- | --- | --- | --- | --- | --- | --- | --- | --- | --- | --- | --- | --- | --- | --- | --- | --- |
| – | – | – | – | – | – | – | – | – | – | – | – | C1CSCSC1 [1,3-dithiane] | 70.6 | 36.7 | 59.5 | 57.2 | 18.5 | 50 | significantly lower | – |
| – | – | – | – | – | – | – | – | – | – | – | – | c1ccc(Nc2cccc3ccccc23)cc1 [1-NPN, N-phenyl-1-naphthylamine, reference compound] | – | – | – | – | – | – | – | Kd (GdauOBP1): 11.4 µM; Kd (GdauOBP6): 11.8 µM; Kd (GdauOBP10): 6.54 µM; Kd (GdauOBP15): 14.6 µM; Kd (GdauCSP4): 18.9 µM; Kd (GdauCSP5): 5.34 µM |
| 63 | 53.8 | 80.5 | 69.2 | 59.9 | 46.2 | 51.7 | 45.6 | 23.4 | 21.2 | 45.5 | 33.5 | C1=CC=CCC=C1 [1,3,5-cycloheptatriene, 1,3,5-Cycloheptatriene] | – | – | – | – | – | – | significantly lower | – |
| 82.6 | 70.6 | 68.7 | 59 | – | – | – | – | – | – | 84.2 | 61.9 | C=CC(=C)CCC=C(C)C [Myrcene] | – | – | – | – | – | – | significantly lower | – |
| – | – | – | – | – | – | – | – | – | – | – | – | CCCC=CC=O [2-hexenal, 2-Hexenal] | 95.9 | 33.9 | 85.5 | 41.7 | 17.5 | 34.4 | significantly lower | EAG response compared to the control (G. daurica antennae [2]): reduced significantly |
| – | – | – | – | – | – | – | – | – | – | – | – | C=CCSSCC=C [Diallyl disulfide] | 97.1 | 72.1 | – | 42.3 | 23.5 | 61.6 | – | – |
| – | – | – | – | – | – | – | – | – | – | – | – | CCC/C=C\CO [(Z)-2-hexen-1-ol, (Z)-2-Hexen-1-ol] | 86.4 | 33 | 95.6 | 76 | 50 | – | – | – |
| – | – | 55 | 47.3 | 77.8 | 60.1 | 48.1 | 42.4 | 43.8 | 39.7 | 72.2 | 53.1 | C=CCSCC=C [Diallyl sulfide] | – | – | – | – | – | – | – | – |
| 63.2 | 54 | 44.5 | 38.2 | 67.4 | 52.1 | 56.7 | 50 | 16.6 | 15 | 53.7 | 39.5 | CSSSC [Dimethyl trisulfide] | – | – | – | – | – | – | significantly lower | – |
| – | – | – | – | – | – | – | – | – | – | – | – | Cc1ccc(C)cc1 [p-xylene, p-Xylene] | 84.7 | 72.5 | 58 | 49.9 | 19.7 | 55.7 | significantly lower | – |
| – | – | – | – | – | – | – | – | – | – | – | – | COC(=O)c1ccccc1 [Methyl benzoate] | 65.4 | 36.4 | 73.9 | 35.9 | 13.3 | 44.3 | significantly lower | – |
| – | – | – | – | – | – | – | – | – | – | – | – | CCCCCC=O [Hexanal] | 70.8 | 32.3 | 52 | 68.8 | 15.4 | 61.4 | significantly lower | – |

| Structure (SMILES) | IC50 (GdauOBP1; [3]) [µM] | Ki (GdauOBP1; GdauOBP1) [µM] | IC50 (GdauOBP6; [4]) [µM] | Ki (GdauOBP6; GdauOBP6) [µM] | IC50 (GdauOBP10; [5]) [µM] | Ki (GdauOBP10; GdauOBP10) [µM] | IC50 (GdauOBP15; [6]) [µM] | Ki (GdauOBP15; GdauOBP15) [µM] | IC50 (GdauCSP4; [7]) [µM] | Ki (GdauCSP4; GdauCSP4) [µM] | IC50 (GdauCSP5; [8]) [µM] | Ki (GdauCSP5; GdauCSP5) [µM] | IC50 (GdauOBP1) [µM] | IC50 (GdauOBP6) [µM] | IC50 (GdauOBP10) [µM] | IC50 (GdauOBP15) [µM] | IC50 (GdauCSP4) [µM] | IC50 (GdauCSP5) [µM] | EAG response compared to the control (G. daurica antennae [1]) | other results |
| --- | --- | --- | --- | --- | --- | --- | --- | --- | --- | --- | --- | --- | --- | --- | --- | --- | --- | --- | --- | --- |
| CSSC [Dimethyl disulfide] | 64.9 | 55.4 | 29.9 | 25.7 | 61.9 | 47.8 | 26.2 | 23.1 | 23.1 | 21 | 36 | 26.5 | – | – | – | – | – | – | – | – |
